Assay results taken from US20130156791A1, “METHODS AND PHARMACEUTICAL COMPOSITIONS FOR THE TREATMENT OF HIV-1 INFECTIONS” (priority 2010, published 2013).

How the values were obtained:
HIVNDK = type: cell-based, HIV-1; details: activated T-lymphoblasts (Fig. 2a, S2a)
HIVBaL = type: cell-based, HIV-1; details: activated T-lymphoblasts (Fig. 2a, S2a)
HIVNL43 = experiment: Target cell infectivity, Tat-inducible β-galactosidase reporter; type: cell-based, HIV-1; details: HIVNL43, MOI 1, β-Gal reporter, 24 h after infection
[1] = tested on: CD4^+CXCR4^+ target cells; type: cell-based, human
Method: Supplementary FIG. 1 Pannexin-1-dependent ATP release during HIV-1 infection and during HIV-1 Env-mediated fusion. (a) Effect of apyrase and AMD3100 on target cell viability. The viability of cells incubated for 3 hours with different concentrations of apyrase or AMD3100 (as indicated) and then infected with HIV-1NL43 for 2 days, was assessed by the MTT (3-[4,5-dimethylthiazol-2-yl]-2,5-diphenyl tetrazolium bromide) assay, as detailed in Methods. (b) Effects of apyrase and AMD3100 on ATP release detected during HIV-1 infection. […] After 2 hours of infection, ATP release was determined as described in Methods. […] Cell viability in c was assessed as in a (mean±s.e.m; n=3; *P<0.05). Fusion between HIV-1 Env-expressing cells (that also express Tat protein) and CD4^+CXCR4^+ target cells (that contain Tat-inducible β-galactosidase) was determined by measuring β-galactosidase (β-Gal) activity (d), as described in Methods. (e) Effects of Pannexin-1 knockdowns on HIV-1 Env-mediated fusion, as described in (c). Data in (a), (b), (c), (d) and (e) were determined in 3 independent experiments (mean±s.e.m; *P<0.05).

[2] = tested on: PHA/IL-2 stimulated human lymphoblasts infected with HIVNDK; experiment: Plasma membrane depolarization after HIVNDK infection (DiBac4(3), flow cytometry); type: cell-based; details: 1 hour of HIVNDK infection (Fig. 4e)
[3] = tested on: CD4/CXCR4-expressing cells cocultured with Env-expressing cells; experiment: HIV-1 envelope mediated conjugate formation (actin polymerization between two interacting cells); details: coculture of Env-expressing and CD4/CXCR4-expressing cells (Fig. 1d)
Method: Error bars indicate SD of 3 independent determinations (means±SD; *P<0.05). (d) Effect of ATP depletion by apyrase on HIV-1 envelope mediated actin polymerization. Actin polymerization between two interacting cells was determined in 3 independent experiments (means±SEM; *P<0.05) by fluorescent microscopy (e) Localization of pannexin-1 at the contact site between primary HIV-1-infected lymphoblasts (green) and primary uninfected lymphoblasts, visualized by confocal microscopy.
HeLa cells stably transfected with the Env gene of HIV-1 LAI/IIIB (HeLa Env) and HeLa cells transfected with CD4 (HeLa CD4) were cultured alone or together at a 1:1 ratio in Dulbecco's modified Eagle's medium supplemented with 10% FCS, 2 mM L-glutamine and penicillin/streptomycin (Invitrogen) in the absence or in presence of tested molecules.

[4] = tested on: CD4^+CXCR4^+ cells infected with HIVNL43
[5] = tested on: HIV-1 envelope mediated hemifusion/fusion of HeLa Env^+ and HeLa CD4^+ cells; experiment: Hemifusion and cell-cell fusion assays, HeLa Env+ / HeLa CD4+ coculture; type: cell-based, human; details: absence or presence of 70 mM KCl for 3 h; 5 μM AMD3100 (Fig. 4d)
CD4^+CXCR4^+ cells = experiment: Plasma membrane depolarization of uninfected cells (DiBac4(3), flow cytometry); type: cell-based, human; details: 70 mM KCl for 3 h (Fig. 4b,c)
[6] = tested on: HIVNDK infected (PHA/IL-2 stimulated) lymphoblasts; type: cell-based, human; details: HIVNDK (Fig. 6d)

| Compound | replication of X4-tropic HIV (HIVNDK) | replication of R5-tropic HIV (HIVBaL) | plasma membrane depolarization induced by HIV-1 infection [2] | fusion of Env+ and CD4+/CXCR4+ cells [5] | CD4+ T cell depletion / death of activated CD4+ T lymphoblasts (7-AAD uptake) [6] | viral infection of lymphoblasts (intracellular p24 antigen) [6] | also measured |
| --- | --- | --- | --- | --- | --- | --- | --- |
| Nc1ncnc2c1ncn2[C@@H](C=O)O[C@@H](C=O)COP(=O)(O)OP(=O)(O)OP(=O)(O)O [OxATP, oxidized ATP] | blocked the replication | blocked the replication |  |  |  |  |  |
| apyrase |  |  | abolished |  |  |  | HIV-1 infection (target cell infectivity) (HIVNL43): prevented HIV-1 infection; toxicity / target cell viability [1]: non-toxic; conjugate formation revealed by actin polymerization between two interacting cells [3]: abolished conjugate formation |
| c1cc(CN2CCCNCCNCCCNCC2)ccc1CN1CCCNCCNCCCNCC1 [AMD3100] |  |  | abolished | reduced |  |  | ATP release during HIV-1 infection [4]: prevented ATP release |
| [Cl-].[K+] [KCl] |  |  |  | enhanced the fusion |  |  | plasma membrane depolarization (CD4^+CXCR4^+ cells): strongly induced membrane depolarization |
| Cc1nc(N=Nc2ccc(S(=O)(=O)O)cc2S(=O)(=O)O)c(COP(=O)(O)O)c(C=O)c1O [PPADS] | blocked the replication | blocked the replication |  |  | reduces | reduces viral infection |  |
| Cc1ccc(C(=O)Nc2ccc(S(=O)(=O)O)c3cc(S(=O)(=O)O)cc(S(=O)(=O)O)c23)cc1NC(=O)c1cccc(NC(=O)Nc2cccc(C(=O)Nc3cc(C(=O)Nc4ccc(S(=O)(=O)O)c5cc(S(=O)(=O)O)cc(S(=O)(=O)O)c45)ccc3C)c2)c1 [suramin] | blocked the replication | blocked the replication |  |  | reduces | reduces viral infection |  |
